Measured values reported in PubChem BioAssay AID1919016 (Molecular Pharmacology Branch, DTP, NCI, 2023).
pIC50: −log10 of the molar value. One block for each compound: values may come before it.

System: NCI-H196 complex spheroid growth, percent test/control
Assay: Anticancer human tumor NCI-H196 cell line growth inhibition [AhR];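 note: seven days of drug exposure starting three days after plating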;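 for viability, T/C: 100% = DMSO vehicle control wells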
Conditions: for pIC50: curve of first compound; for viability, T/C: stronger effect = lower value
How it was run: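 Agents were dosed in half-log steps down from roughly clinical Cmax, or from 10 microM where Cmax was unknown, alone and with AhR antagonists. Read-out: percent test/control growth of tumor spheroids containing HUVEC and MSC stromal cells.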

[1] = second compound 0.1 µM, first compound 0.0316 µM
[2] = second compound 0.1 µM, first compound 0.1 µM
[3] = second compound 0.1 µM, first compound 0.316 µM
[4] = second compound 0.1 µM, first compound 1 µM
[5] = second compound 0.1 µM, first compound 3.16 µM
[6] = second compound 0.1 µM, first compound 10 µM
[7] = second compound 0.316 µM, first compound 0.0316 µM
[8] = second compound 0.316 µM, first compound 0.1 µM
[9] = second compound 0.316 µM, first compound 0.316 µM
[10] = second compound 0.316 µM, first compound 1 µM
[11] = second compound 0.316 µM, first compound 3.16 µM
[12] = second compound 0.316 µM, first compound 10 µM
[13] = second compound 1 µM, first compound 0.0316 µM
[14] = second compound 1 µM, first compound 0.1 µM
[15] = second compound 1 µM, first compound 0.316 µM
[16] = second compound 1 µM, first compound 1 µM
[17] = second compound 1 µM, first compound 3.16 µM
[18] = second compound 1 µM, first compound 10 µM
[19] = second compound 3.16 µM, first compound 0.0316 µM
[20] = second compound 3.16 µM, first compound 0.1 µM
[21] = second compound 3.16 µM, first compound 0.316 µM
[22] = second compound 3.16 µM, first compound 1 µM
[23] = second compound 3.16 µM, first compound 3.16 µM
[24] = second compound 3.16 µM, first compound 10 µM
[25] = second compound 10 µM, first compound 0.0316 µM
[26] = second compound 10 µM, first compound 0.1 µM
[27] = second compound 10 µM, first compound 0.316 µM
[28] = second compound 10 µM, first compound 1 µM
[29] = second compound 10 µM, first compound 3.16 µM
[30] = second compound 10 µM, first compound 10 µM

SMILES: CC(C)c1c(-c2ccccc2)nc2c(C#N)c[nH]n2c1=O + Cc1ccccc1N=Nc1ccc(NC(=O)c2ccnn2C)c(C)c1
- pIC50 (second compound 0.1 µM): < 5.00
- pIC50 (second compound 0.316 µM): < 5.00
- pIC50 (second compound 1 µM): < 5.00
- pIC50 (second compound 3.16 µM): < 5.00
- pIC50 (second compound 10 µM): < 5.00
- viability, T/C [1]: 103%
- viability, T/C [2]: 104%
- viability, T/C [3]: 89.5%
- viability, T/C [4]: 99.1%
- viability, T/C [5]: 112%
- viability, T/C [6]: 97.9%
- viability, T/C [7]: 95.6%
- viability, T/C [8]: 99.4%
- viability, T/C [9]: 99.4%
- viability, T/C [10]: 93.6%
- viability, T/C [11]: 103%
- viability, T/C [12]: 88.7%
- viability, T/C [13]: 97.7%
- viability, T/C [14]: 96.9%
- viability, T/C [15]: 101%
- viability, T/C [16]: 97%
- viability, T/C [17]: 99.3%
- viability, T/C [18]: 104%
- viability, T/C [19]: 109%
- viability, T/C [20]: 100%
- viability, T/C [21]: 101%
- viability, T/C [22]: 96.3%
- viability, T/C [23]: 94.9%
- viability, T/C [24]: 104%
- viability, T/C [25]: 95%
- viability, T/C [26]: 98%
- viability, T/C [27]: 96.5%
- viability, T/C [28]: 95.7%
- viability, T/C [29]: 96.1%
- viability, T/C [30]: 95.7%

SMILES: CC1COCCN1c1cc(-c2ccnn2C)c2ccnc(-c3ccn[nH]3)c2n1 (stereo not given) + Cc1ccccc1N=Nc1ccc(NC(=O)c2ccnn2C)c(C)c1
- pIC50 (second compound 0.1 µM): < 6.00
- pIC50 (second compound 0.316 µM): < 6.00
- pIC50 (second compound 1 µM): < 6.00
- pIC50 (second compound 3.16 µM): < 6.00
- pIC50 (second compound 10 µM): < 6.00
- viability, T/C (second compound 0.1 µM, first compound 0.00316 µM): 96.4%
- viability, T/C (second compound 0.1 µM, first compound 0.01 µM): 90.9%
- viability, T/C [1]: 86%
- viability, T/C [2]: 66%
- viability, T/C [3]: 58.3%
- viability, T/C [4]: 53%
- viability, T/C (second compound 0.316 µM, first compound 0.00316 µM): 98.9%
- viability, T/C (second compound 0.316 µM, first compound 0.01 µM): 96.1%
- viability, T/C [7]: 87.5%
- viability, T/C [8]: 71.3%
- viability, T/C [9]: 52.2%
- viability, T/C [10]: 52.7%
- viability, T/C (second compound 1 µM, first compound 0.00316 µM): 85.2%
- viability, T/C (second compound 1 µM, first compound 0.01 µM): 94.5%
- viability, T/C [13]: 85.5%
- viability, T/C [14]: 71.1%
- viability, T/C [15]: 56%
- viability, T/C [16]: 52.1%
- viability, T/C (second compound 3.16 µM, first compound 0.00316 µM): 89.2%
- viability, T/C (second compound 3.16 µM, first compound 0.01 µM): 94.2%
- viability, T/C [19]: 91.5%
- viability, T/C [20]: 70.5%
- viability, T/C [21]: 56.6%
- viability, T/C [22]: 49.9%
- viability, T/C (second compound 10 µM, first compound 0.00316 µM): 96.8%
- viability, T/C (second compound 10 µM, first compound 0.01 µM): 88.9%
- viability, T/C [25]: 77.9%
- viability, T/C [26]: 74.6%
- viability, T/C [27]: 63.4%
- viability, T/C [28]: 52.8%

SMILES: O=C(C=Cn1cnc(-c2cc(C(F)(F)F)cc(C(F)(F)F)c2)n1)NNc1cnccn1 + Cc1ccccc1N=Nc1ccc(NC(=O)c2ccnn2C)c(C)c1
- pIC50 (second compound 0.1 µM): 7.48
- pIC50 (second compound 0.316 µM): 7.44
- pIC50 (second compound 1 µM): 7.46
- pIC50 (second compound 3.16 µM): 7.45
- pIC50 (second compound 10 µM): 7.38
- viability, T/C (second compound 0.1 µM, first compound 0.00949 µM): 71.3%
- viability, T/C (second compound 0.1 µM, first compound 0.03 µM): 54.5%
- viability, T/C (second compound 0.1 µM, first compound 0.0949 µM): 6.66%
- viability, T/C (second compound 0.1 µM, first compound 0.3 µM): 6.81%
- viability, T/C (second compound 0.1 µM, first compound 0.949 µM): 5.42%
- viability, T/C (second compound 0.1 µM, first compound 3 µM): 7.76%
- viability, T/C (second compound 0.316 µM, first compound 0.00949 µM): 72.7%
- viability, T/C (second compound 0.316 µM, first compound 0.03 µM): 58.6%
- viability, T/C (second compound 0.316 µM, first compound 0.0949 µM): 8.61%
- viability, T/C (second compound 0.316 µM, first compound 0.3 µM): 5.66%
- viability, T/C (second compound 0.316 µM, first compound 0.949 µM): 6.01%
- viability, T/C (second compound 0.316 µM, first compound 3 µM): 6.07%
- viability, T/C (second compound 1 µM, first compound 0.00949 µM): 79.8%
- viability, T/C (second compound 1 µM, first compound 0.03 µM): 56%
- viability, T/C (second compound 1 µM, first compound 0.0949 µM): 9.47%
- viability, T/C (second compound 1 µM, first compound 0.3 µM): 5.55%
- viability, T/C (second compound 1 µM, first compound 0.949 µM): 8.58%
- viability, T/C (second compound 1 µM, first compound 3 µM): 8.52%
- viability, T/C (second compound 3.16 µM, first compound 0.00949 µM): 68.4%
- viability, T/C (second compound 3.16 µM, first compound 0.03 µM): 56.8%
- viability, T/C (second compound 3.16 µM, first compound 0.0949 µM): 9.86%
- viability, T/C (second compound 3.16 µM, first compound 0.3 µM): 4.79%
- viability, T/C (second compound 3.16 µM, first compound 0.949 µM): 7.89%
- viability, T/C (second compound 3.16 µM, first compound 3 µM): 8.09%
- viability, T/C (second compound 10 µM, first compound 0.00949 µM): 74.6%
- viability, T/C (second compound 10 µM, first compound 0.03 µM): 64%
- viability, T/C (second compound 10 µM, first compound 0.0949 µM): 13.8%
- viability, T/C (second compound 10 µM, first compound 0.3 µM): 10.6%
- viability, T/C (second compound 10 µM, first compound 0.949 µM): 8.84%
- viability, T/C (second compound 10 µM, first compound 3 µM): 12.8%

Further lines, with some results ahead:

- pIC50 (second compound 0.1 µM): < 5.00
- pIC50 (second compound 0.316 µM): < 5.00
- pIC50 (second compound 1 µM): < 5.00
- pIC50 (second compound 3.16 µM): < 5.00
- pIC50 (second compound 10 µM): < 5.00
SMILES: CC1COCCN1c1cc(C2(S(C)(=N)=O)CC2)nc(-c2ccnc3[nH]ccc23)n1 (stereo not given) + Cc1ccccc1N=Nc1ccc(NC(=O)c2ccnn2C)c(C)c1
- viability, T/C [1]: 98.5%
- viability, T/C [2]: 101%
- viability, T/C [3]: 98.8%
- viability, T/C [4]: 101%
- viability, T/C [5]: 81.5%
- viability, T/C [6]: 69.7%
- viability, T/C [7]: 99.3%
- viability, T/C [8]: 102%
- viability, T/C [9]: 99.2%
- viability, T/C [10]: 92.5%
- viability, T/C [11]: 80.5%
- viability, T/C [12]: 72.6%
- viability, T/C [13]: 96.3%
- viability, T/C [14]: 104%
- viability, T/C [15]: 101%
- viability, T/C [16]: 94%
- viability, T/C [17]: 87.7%
- viability, T/C [18]: 70%
- viability, T/C [19]: 96.2%
- viability, T/C [20]: 99.1%
- viability, T/C [21]: 97.4%
- viability, T/C [22]: 88.6%
- viability, T/C [23]: 81.8%
- viability, T/C [24]: 74%
- viability, T/C [25]: 85.7%
- viability, T/C [26]: 93.1%
- viability, T/C [27]: 101%
- viability, T/C [28]: 89.7%
- viability, T/C [29]: 78.3%
- viability, T/C [30]: 76.6%

- pIC50 (second compound 0.1 µM): < 5.00
- pIC50 (second compound 0.316 µM): < 5.00
- pIC50 (second compound 1 µM): < 5.00
- pIC50 (second compound 3.16 µM): < 5.00
- pIC50 (second compound 10 µM): < 5.00
SMILES: COc1ccc([C@@H](O)c2cc(-c3ncnc4cc(N5CCOCC5)ccc34)c(F)cc2Cl)nn1 + Cc1ccccc1N=Nc1ccc(NC(=O)c2ccnn2C)c(C)c1
- viability, T/C [1]: 97.4%
- viability, T/C [2]: 92.5%
- viability, T/C [3]: 96%
- viability, T/C [4]: 81.8%
- viability, T/C [5]: 72.8%
- viability, T/C [6]: 65.4%
- viability, T/C [7]: 95.3%
- viability, T/C [8]: 102%
- viability, T/C [9]: 90%
- viability, T/C [10]: 78.3%
- viability, T/C [11]: 68.9%
- viability, T/C [12]: 68%
- viability, T/C [13]: 85.7%
- viability, T/C [14]: 88%
- viability, T/C [15]: 88.6%
- viability, T/C [16]: 89.3%
- viability, T/C [17]: 72.6%
- viability, T/C [18]: 66.6%
- viability, T/C [19]: 97.3%
- viability, T/C [20]: 96.8%
- viability, T/C [21]: 86.8%
- viability, T/C [22]: 77.1%
- viability, T/C [23]: 74.6%
- viability, T/C [24]: 65.1%
- viability, T/C [25]: 88.1%
- viability, T/C [26]: 83.8%
- viability, T/C [27]: 79.4%
- viability, T/C [28]: 73.1%
- viability, T/C [29]: 76.5%
- viability, T/C [30]: 60.3%
